In patent publication US12390441B2, “Immunomodulating o-het/aryl azalides” (Zoetis Services LLC, priority 2020, dated 2025):
Marks after values point to notes of the source that are not given here.

System: BRD pathogens, M. haemolytica and P. multocida
Assay: In-vitro MIC model, BRD pathogen screening panel
Format: cell-based, Mannheimia haemolytica; Pasteurella multocida
Details: at least one BRD strain

Compound | MIC flag at the example number (Table C) | MIC flag at the example number (Table E)
CC[C@H]1OC(=O)[C@H](C)[C@@H](O)[C@H](C)[C@@H](O[C@@H]2O[C@H](C)C[C@H](N(C)C(=O)N(C)c3ccccc3)[C@H]2Oc2ccc3ncsc3c2)[C@](C)(O)C[C@@H](C)CN(C)[C@H](C)[C@@H](O)[C@]1(C)O [Example C-11] | C-11* (MIC ≤ 64 μg/mL for at least one BRD strain) | –
CCCNC[C@]1(O)[C@H](C)O[C@@H](O[C@H]2[C@H](C)[C@@H](O[C@@H]3O[C@H](C)C[C@H](NC)[C@H]3Oc3ccccc3OC(F)(F)F)[C@](C)(O)C[C@@H](C)CN[C@H](C)[C@@H](O)[C@](C)(O)[C@@H](CC)OC(=O)[C@@H]2C)C[C@@]1(C)OC [Example E-5] | – | E-5* (MIC ≤ 64 μg/mL for at least one BRD strain)
CCCNC[C@]1(O)[C@H](C)O[C@@H](O[C@H]2[C@H](C)[C@@H](O[C@@H]3O[C@H](C)C[C@H](NC)[C@H]3Oc3ccccc3Cl)[C@](C)(O)C[C@@H](C)CN[C@H](C)[C@@H](O)[C@](C)(O)[C@@H](CC)OC(=O)[C@@H]2C)C[C@@]1(C)OC [Example E-14] | – | E-14* (MIC ≤ 64 μg/mL for at least one BRD strain)
CCCNC[C@]1(O)[C@H](C)O[C@@H](O[C@H]2[C@H](C)[C@@H](O[C@@H]3O[C@H](C)C[C@H](NC)[C@H]3Oc3cc(F)cc(F)c3)[C@](C)(O)C[C@@H](C)CN[C@H](C)[C@@H](O)[C@](C)(O)[C@@H](CC)OC(=O)[C@@H]2C)C[C@@]1(C)OC [Example E-16] | – | E-16* (MIC ≤ 64 μg/mL for at least one BRD strain)
CCCNC[C@]1(O)[C@H](C)O[C@@H](O[C@H]2[C@H](C)[C@@H](O[C@@H]3O[C@H](C)C[C@H](NC)[C@H]3Oc3cc(F)ccc3OC)[C@](C)(O)C[C@@H](C)CN[C@H](C)[C@@H](O)[C@](C)(O)[C@@H](CC)OC(=O)[C@@H]2C)C[C@@]1(C)OC [Example E-17] | – | E-17* (MIC ≤ 64 μg/mL for at least one BRD strain)
CCCNC[C@]1(O)[C@H](C)O[C@@H](O[C@H]2[C@H](C)[C@@H](O[C@@H]3O[C@H](C)C[C@H](NC)[C@H]3Oc3cc(OC)ccc3F)[C@](C)(O)C[C@@H](C)CN[C@H](C)[C@@H](O)[C@](C)(O)[C@@H](CC)OC(=O)[C@@H]2C)C[C@@]1(C)OC [Example E-18] | – | E-18* (MIC ≤ 64 μg/mL for at least one BRD strain)
CCCNC[C@]1(O)[C@H](C)O[C@@H](O[C@H]2[C@H](C)[C@@H](O[C@@H]3O[C@H](C)C[C@H](NC)[C@H]3Oc3cccc(Cl)c3)[C@](C)(O)C[C@@H](C)CN[C@H](C)[C@@H](O)[C@](C)(O)[C@@H](CC)OC(=O)[C@@H]2C)C[C@@]1(C)OC [Example E-21] | – | E-21* (MIC ≤ 64 μg/mL for at least one BRD strain)
CCCNC[C@]1(O)[C@H](C)O[C@@H](O[C@H]2[C@H](C)[C@@H](O[C@@H]3O[C@H](C)C[C@H](NC)[C@H]3Oc3ccc(F)c(C)c3)[C@](C)(O)C[C@@H](C)CN[C@H](C)[C@@H](O)[C@](C)(O)[C@@H](CC)OC(=O)[C@@H]2C)C[C@@]1(C)OC [Example E-22] | – | E-22* (MIC ≤ 64 μg/mL for at least one BRD strain)
CCCNC[C@]1(O)[C@H](C)O[C@@H](O[C@H]2[C@H](C)[C@@H](O[C@@H]3O[C@H](C)C[C@H](NC)[C@H]3Oc3ccc(F)cc3C)[C@](C)(O)C[C@@H](C)CN[C@H](C)[C@@H](O)[C@](C)(O)[C@@H](CC)OC(=O)[C@@H]2C)C[C@@]1(C)OC [Example E-23] | – | E-23* (MIC ≤ 64 μg/mL for at least one BRD strain)
CCCNC[C@]1(O)[C@H](C)O[C@@H](O[C@H]2[C@H](C)[C@@H](O[C@@H]3O[C@H](C)C[C@H](N(C)C)[C@H]3Oc3ccc(OC)c(OC(C)C)c3)[C@](C)(O)C[C@@H](C)CN[C@H](C)[C@@H](O)[C@](C)(O)[C@@H](CC)OC(=O)[C@@H]2C)C[C@@]1(C)OC [Example E-29] | – | E-29* (MIC ≤ 64 μg/mL for at least one BRD strain)
CCCNC[C@]1(O)[C@H](C)O[C@@H](O[C@H]2[C@H](C)[C@@H](O[C@@H]3O[C@H](C)C[C@H](NC)[C@H]3Oc3ccncc3)[C@](C)(O)C[C@@H](C)CN[C@H](C)[C@@H](O)[C@](C)(O)[C@@H](CC)OC(=O)[C@@H]2C)C[C@@]1(C)OC [Example E-32] | – | E-32* (MIC ≤ 64 μg/mL for at least one BRD strain)
CCCNC[C@]1(O)[C@H](C)O[C@@H](O[C@H]2[C@H](C)[C@@H](O[C@@H]3O[C@H](C)C[C@H](NC)[C@H]3Oc3ncccn3)[C@](C)(O)C[C@@H](C)CN[C@H](C)[C@@H](O)[C@](C)(O)[C@@H](CC)OC(=O)[C@@H]2C)C[C@@]1(C)OC [Example E-33] | – | E-33* (MIC ≤ 64 μg/mL for at least one BRD strain)
CCCNC[C@]1(O)[C@H](C)O[C@@H](O[C@H]2[C@H](C)[C@@H](O[C@@H]3O[C@H](C)C[C@H](NC)[C@H]3Oc3ccc([N+](=O)[O-])cc3)[C@](C)(O)C[C@@H](C)CN[C@H](C)[C@@H](O)[C@](C)(O)[C@@H](CC)OC(=O)[C@@H]2C)C[C@@]1(C)OC [Example E-35] | – | E-35* (MIC ≤ 64 μg/mL for at least one BRD strain)
CCCNC[C@]1(O)[C@H](C)O[C@@H](O[C@H]2[C@H](C)[C@@H](O[C@@H]3O[C@H](C)C[C@H](NC)[C@H]3Oc3cccnc3C)[C@](C)(O)C[C@@H](C)CN[C@H](C)[C@@H](O)[C@](C)(O)[C@@H](CC)OC(=O)[C@@H]2C)C[C@@]1(C)OC [Example E-44] | – | E-44* (MIC ≤ 64 μg/mL for at least one BRD strain)
CCCNC[C@]1(O)[C@H](C)O[C@@H](O[C@H]2[C@H](C)[C@@H](O[C@@H]3O[C@H](C)C[C@H](NC)[C@H]3Oc3cc(C)ccc3F)[C@](C)(O)C[C@@H](C)CN[C@H](C)[C@@H](O)[C@](C)(O)[C@@H](CC)OC(=O)[C@@H]2C)C[C@@]1(C)OC [Example E-53] | – | E-53* (MIC ≤ 64 μg/mL for at least one BRD strain)
CCCNC[C@]1(O)[C@H](C)O[C@@H](O[C@H]2[C@H](C)[C@@H](O[C@@H]3O[C@H](C)C[C@H](NC)[C@H]3Oc3cccc(OC(F)(F)F)c3)[C@](C)(O)C[C@@H](C)CN[C@H](C)[C@@H](O)[C@](C)(O)[C@@H](CC)OC(=O)[C@@H]2C)C[C@@]1(C)OC [Example E-54] | – | E-54* (MIC ≤ 64 μg/mL for at least one BRD strain)
CCCNC[C@]1(O)[C@H](C)O[C@@H](O[C@H]2[C@H](C)[C@@H](O[C@@H]3O[C@H](C)C[C@H](NC)[C@H]3Oc3ccc(F)c(F)c3F)[C@](C)(O)C[C@@H](C)CN[C@H](C)[C@@H](O)[C@](C)(O)[C@@H](CC)OC(=O)[C@@H]2C)C[C@@]1(C)OC [Example E-55] | – | E-55* (MIC ≤ 64 μg/mL for at least one BRD strain)
CCCNC[C@]1(O)[C@H](C)O[C@@H](O[C@H]2[C@H](C)[C@@H](O[C@@H]3O[C@H](C)C[C@H](NC)[C@H]3Oc3ccc(F)cc3F)[C@](C)(O)C[C@@H](C)CN[C@H](C)[C@@H](O)[C@](C)(O)[C@@H](CC)OC(=O)[C@@H]2C)C[C@@]1(C)OC [Example E-58] | – | E-58* (MIC ≤ 64 μg/mL for at least one BRD strain)
CCCNC[C@]1(O)[C@H](C)O[C@@H](O[C@H]2[C@H](C)[C@@H](O[C@@H]3O[C@H](C)C[C@H](NC)[C@H]3Oc3cccnc3OCC)[C@](C)(O)C[C@@H](C)CN[C@H](C)[C@@H](O)[C@](C)(O)[C@@H](CC)OC(=O)[C@@H]2C)C[C@@]1(C)OC [Example E-59] | – | E-59* (MIC ≤ 64 μg/mL for at least one BRD strain)
CCCNC[C@]1(O)[C@H](C)O[C@@H](O[C@H]2[C@H](C)[C@@H](O[C@@H]3O[C@H](C)C[C@H](NC)[C@H]3Oc3cccc4cc[nH]c34)[C@](C)(O)C[C@@H](C)CN[C@H](C)[C@@H](O)[C@](C)(O)[C@@H](CC)OC(=O)[C@@H]2C)C[C@@]1(C)OC [Example E-65] | – | E-65* (MIC ≤ 64 μg/mL for at least one BRD strain)
CCCNC[C@]1(O)[C@H](C)O[C@@H](O[C@H]2[C@H](C)[C@@H](O[C@@H]3O[C@H](C)C[C@H](NC)[C@H]3Oc3ccccc3S(C)(=O)=O)[C@](C)(O)C[C@@H](C)CN[C@H](C)[C@@H](O)[C@](C)(O)[C@@H](CC)OC(=O)[C@@H]2C)C[C@@]1(C)OC [Example E-66] | – | E-66* (MIC ≤ 64 μg/mL for at least one BRD strain)
CCCNC[C@]1(O)[C@H](C)O[C@@H](O[C@H]2[C@H](C)[C@@H](O[C@@H]3O[C@H](C)C[C@H](N(C)C)[C@H]3Oc3cncc(C(F)(F)F)c3)[C@](C)(O)C[C@@H](C)CN[C@H](C)[C@@H](O)[C@](C)(O)[C@@H](CC)OC(=O)[C@@H]2C)C[C@@]1(C)OC [Example E-70] | – | E-70* (MIC ≤ 64 μg/mL for at least one BRD strain)
CCCNC[C@]1(O)[C@H](C)O[C@@H](O[C@H]2[C@H](C)[C@@H](O[C@@H]3O[C@H](C)C[C@H](NC)[C@H]3Oc3ccc(OC)c(OC)c3)[C@](C)(O)C[C@@H](C)CN[C@H](C)[C@@H](O)[C@](C)(O)[C@@H](CC)OC(=O)[C@@H]2C)C[C@@]1(C)OC [Example E-74] | – | E-74* (MIC ≤ 64 μg/mL for at least one BRD strain)
CCCNC[C@]1(O)[C@H](C)O[C@@H](O[C@H]2[C@H](C)[C@@H](O[C@@H]3O[C@H](C)C[C@H](NC)[C@H]3Oc3ccc(-n4cccc4)cc3)[C@](C)(O)C[C@@H](C)CN[C@H](C)[C@@H](O)[C@](C)(O)[C@@H](CC)OC(=O)[C@@H]2C)C[C@@]1(C)OC [Example E-82] | – | E-82* (MIC ≤ 64 μg/mL for at least one BRD strain)
CCCNC[C@]1(O)[C@H](C)O[C@@H](O[C@H]2[C@H](C)[C@@H](O[C@@H]3O[C@H](C)C[C@H](N(C)C)[C@H]3Oc3ccccc3Cl)[C@](C)(O)C[C@@H](C)CN[C@H](C)[C@@H](O)[C@](C)(O)[C@@H](CC)OC(=O)[C@@H]2C)C[C@@]1(C)OC [Example E-83] | – | E-83* (MIC ≤ 64 μg/mL for at least one BRD strain)
CCCNC[C@]1(O)[C@H](C)O[C@@H](O[C@H]2[C@H](C)[C@@H](O[C@@H]3O[C@H](C)C[C@H](N(C)C)[C@H]3Oc3ccc4ccncc4c3)[C@](C)(O)C[C@@H](C)CN[C@H](C)[C@@H](O)[C@](C)(O)[C@@H](CC)OC(=O)[C@@H]2C)C[C@@]1(C)OC [Example E-85] | – | E-85* (MIC ≤ 64 μg/mL for at least one BRD strain)
